Data set [1] concerns Mycobacterium tuberculosis H37Rv (ATCC27294). Nature of the data set: in vitro anti-tubercular activity, MABA assay. Format: cell-based. (Resazurin is reduced to fluorescent resorufin, in cell work by metabolically active cells.)
Another data set concerns RAW 264.7 cells. Kind of data set: in vitro cytotoxicity, MTT assay. To be noted: at 50 µg ml^−1, RAW 264.7 cells. (Tetrazolium dyes change colour on reduction, which living cells bring about.)
The mark [2] stands for this setting: M. tuberculosis H37Rv, MABA, lowest concentration with complete inhibition of growth.
[3] abbreviates: Mycobacterium tuberculosis, M. tuberculosis H37Rv, MABA, lowest concentration with complete inhibition of growth, read-out: MIC.
The mark [4] stands for this setting: Mycobacterium tuberculosis, supplement page S73 correlation table, read-out: MIC.
[5] abbreviates: Mycobacterium tuberculosis, supplement page S72, standard drugs, read-out: MIC.

Like-named read-outs stand apart in the source and are kept apart here.

For orientation: MIC means the smallest concentration in the dilution series that meets the test's criterion for growth inhibition. By melting point is commonly meant the temperature of the solid-liquid transition.

For “2-((1H-1,2,3-triazol-1-yl)methyl)-4H-chromen-4-one [6t]”, the MIC in data set [1] (setting [2]) turned out to be 50 µg/mL. For the same compound, in the data set on RAW 264.7 cells, the “cytotoxicity (percentage inhibition of cells)” value is listed as 30.12%.

As to “3-((4-(4-propylphenyl)-1H-1,2,3-triazol-1-yl)methyl)-4H-chromen-4-one [6d]”, the MIC in data set [1] (setting [2]) turned out to be 50 µg/mL. In addition, the “cytotoxicity (percentage inhibition of cells)” value with RAW 264.7 cells is reported as 20.60%.

As to `O=c1c(Cn2cc(-c3ccccc3)nn2)coc2ccccc12` [6a, 3-((4-phenyl-1H-1,2,3-triazol-1-yl)methyl)-4H-chromen-4-one], the melting point lay in the range of 154 to 155 °C. Also, the MIC in data set [1] (setting [3]) was 25 µg/mL. Also, the “cytotoxicity (percentage inhibition of cells)” value in the data set with RAW 264.7 cells stood at 12.86%.

On to `Cc1ccc(-c2cn(Cc3coc4ccccc4c3=O)nn2)cc1` [6b, 3-((4-(p-tolyl)-1H-1,2,3-triazol-1-yl)methyl)-4H-chromen-4-one], for which the melting point is 170 to 172 °C. Moreover, in data set [1] (setting [3]), the MIC was determined as 25 µg/mL. Also, in the data set on RAW 264.7 cells, the “cytotoxicity (percentage inhibition of cells)” value amounted to 26.82%.

With `CCc1ccc(-c2cn(Cc3coc4ccccc4c3=O)nn2)cc1` [6c, 3-((4-(4-ethylphenyl)-1H-1,2,3-triazol-1-yl)methyl)-4H-chromen-4-one], in data set [1] (setting [3]), the MIC was found to be 25 µg/mL. For the same compound, the “cytotoxicity (percentage inhibition of cells)” value in the data set with RAW 264.7 cells is 16.12%.

For `CCCCCc1ccc(-c2cn(Cc3coc4ccccc4c3=O)nn2)cc1` [6e, 3-((4-(4-pentylphenyl)-1H-1,2,3-triazol-1-yl)methyl)-4H-chromen-4-one], the melting point lay in the range of 147 to 148 °C. In addition, in data set [1] (setting [3]), the minimum inhibitory concentration (MIC) amounted to 25 µg/mL. In addition, in the data set with RAW 264.7 cells, the “cytotoxicity (percentage inhibition of cells)” value is recorded as 20.12%.

For the compound `CC(C)(C)c1ccc(-c2cn(Cc3coc4ccccc4c3=O)nn2)cc1` [6f, 3-((4-(4-(tert-butyl)phenyl)-1H-1,2,3-triazol-1-yl)methyl)-4H-chromen-4-one], the melting point fell in the range of 218 to 219 °C. Besides, the MIC in data set [1] (setting [2]) was determined as 3.125 µg/mL. Also, the MIC in data set [1] (setting [4]) was found to be 3.12 µg/mL. In addition, in the data set with RAW 264.7 cells, the “cytotoxicity (percentage inhibition of cells)” value came out at 20.12%.

As to `COc1ccc(-c2cn(Cc3coc4ccccc4c3=O)nn2)cc1` [6g, 3-((4-(4-methoxyphenyl)-1H-1,2,3-triazol-1-yl)methyl)-4H-chromen-4-one], the melting point was 170 to 171 °C. The compound further yielded an MIC in data set [1] (setting [2]) of 6.25 µg/mL. In data set [1] (setting [4]), the MIC turned out to be 6.25 µg/mL. Besides, the “cytotoxicity (percentage inhibition of cells)” value in the data set on RAW 264.7 cells stood at 28.40%.

For `CCCCCOc1ccc(-c2cn(Cc3coc4ccccc4c3=O)nn2)cc1` [6h, 3-((4-(4-(pentyloxy)phenyl)-1H-1,2,3-triazol-1-yl)methyl)-4H-chromen-4-one], the melting point is 154 to 155 °C. In data set [1] (setting [2]), the minimal inhibitory concentration (MIC) is 3.125 µg/mL. Besides, the MIC in data set [1] (setting [4]) stood at 3.12 µg/mL. Further, the “cytotoxicity (percentage inhibition of cells)” value in the data set on RAW 264.7 cells worked out at 18.68%.

For `Cc1cccc(-c2cn(Cc3coc4ccccc4c3=O)nn2)c1` [6i, 3-((4-(m-tolyl)-1H-1,2,3-triazol-1-yl)methyl)-4H-chromen-4-one], the melting point lay within 124 to 125 °C. Further, the MIC in data set [1] (setting [3]) came out at 25 µg/mL. Besides, the “cytotoxicity (percentage inhibition of cells)” value in the data set on RAW 264.7 cells is given as 26.82%.

Turning to `COc1ccc(-c2cn(Cc3coc4ccccc4c3=O)nn2)c(C)c1` [6j, 3-((4-(4-methoxy-2-methylphenyl)-1H-1,2,3-triazol-1-yl)methyl)-4H-chromen-4-one], the melting point lay within 172 to 173 °C. In addition, in data set [1] (setting [3]), the MIC is 50 µg/mL. The “cytotoxicity (percentage inhibition of cells)” value in the data set on RAW 264.7 cells amounted to 30.34%.

The compound `O=c1c(Cn2cc(-c3cccc4ccccc34)nn2)coc2ccccc12` [6k, 3-((4-(naphthalen-1-yl)-1H-1,2,3-triazol-1-yl)methyl)-4H-chromen-4-one] displayed a melting point of 154 to 155 °C. In addition, the MIC in data set [1] (setting [3]) was 50 µg/mL. The “cytotoxicity (percentage inhibition of cells)” value with RAW 264.7 cells turned out to be 26.12%.

`O=c1c(Cn2cc(-c3ccccn3)nn2)coc2ccccc12` [6l, 3-((4-(pyridin-2-yl)-1H-1,2,3-triazol-1-yl)methyl)-4H-chromen-4-one] displayed a melting point of 175 to 176 °C. Also, the MIC in data set [1] (setting [3]) was 50 µg/mL. In the data set on RAW 264.7 cells, the “cytotoxicity (percentage inhibition of cells)” value is 30.60%.

Regarding `CCCCc1cn(Cc2coc3ccccc3c2=O)nn1` [6m, 3-((4-butyl-1H-1,2,3-triazol-1-yl)methyl)-4H-chromen-4-one], the melting point is 87 to 88 °C. Besides, the MIC in data set [1] (setting [2]) worked out at 6.25 µg/mL. For the same compound, the MIC in data set [1] (setting [4]) is 6.25 µg/mL. Besides, in the data set with RAW 264.7 cells, the “cytotoxicity (percentage inhibition of cells)” value was determined as 36.82%.

Take `CCCCCCc1cn(Cc2coc3ccccc3c2=O)nn1` [6n, 3-((4-hexyl-1H-1,2,3-triazol-1-yl)methyl)-4H-chromen-4-one]: the melting point fell in the range of 84 to 85 °C. In data set [1] (setting [3]), the MIC worked out at 50 µg/mL. Further, in the data set with RAW 264.7 cells, the “cytotoxicity (percentage inhibition of cells)” value turned out to be 23.74%.

The compound `O=c1c(Cn2cc(C3CCCC3)nn2)coc2ccccc12` [6o, 3-((4-cyclopentyl-1H-1,2,3-triazol-1-yl)methyl)-4H-chromen-4-one] gave a melting point of 157 to 158 °C. This compound also showed an MIC in data set [1] (setting [2]) of 3.125 µg/mL. The MIC in data set [1] (setting [4]) is 3.12 µg/mL. Further, the “cytotoxicity (percentage inhibition of cells)” value in the data set on RAW 264.7 cells turned out to be 18.42%.

Consider `O=c1c(Cn2cc(C3CCCCC3)nn2)coc2ccccc12` [6p, 3-((4-cyclohexyl-1H-1,2,3-triazol-1-yl)methyl)-4H-chromen-4-one], for which the melting point was 145 to 146 °C. In addition, the minimum inhibitory concentration (MIC) in data set [1] (setting [2]) was found to be 12.5 µg/mL. In data set [1] (setting [4]), the MIC came out at 12.5 µg/mL. Also, the “cytotoxicity (percentage inhibition of cells)” value in the data set with RAW 264.7 cells is recorded as 20.12%.

Regarding `O=c1c(Cn2cc(CC3CCCCC3)nn2)coc2ccccc12` [6q, 3-((4-(cyclohexylmethyl)-1H-1,2,3-triazol-1-yl)methyl)-4H-chromen-4-one], the melting point lay in the range of 133 to 134 °C. The MIC in data set [1] (setting [3]) came out at 25 µg/mL. Further, in the data set with RAW 264.7 cells, the “cytotoxicity (percentage inhibition of cells)” value was 28.62%.

As to `O=c1c(Cn2cc(C3(O)c4ccccc4-c4ccccc43)nn2)coc2ccccc12` [6r, 3-((4-(9-hydroxy-9H-fluoren-9-yl)-1H-1,2,3-triazol-1-yl)methyl)-4H-chromen-4-one], the melting point lay in the range of 239 to 240 °C. Moreover, the MIC in data set [1] (setting [3]) turned out to be 50 µg/mL. The “cytotoxicity (percentage inhibition of cells)” value with RAW 264.7 cells came out at 30.60%.

`O=c1c(Cn2cc(CCCCCCCCCCCCCCCO)nn2)coc2ccccc12` [6s, 3-((4-(15-hydroxypentadecyl)-1H-1,2,3-triazol-1-yl)methyl)-4H-chromen-4-one]: the melting point lay within 123 to 124 °C. Also, the MIC in data set [1] (setting [2]) amounted to 1.56 µg/mL. Besides, in data set [1] (setting [4]), the MIC worked out at 1.56 µg/mL. For the same compound, the “times more active than the standard drug ethambutol” value in data set [1] (ratio of MIC values) worked out at 4.8 times. Also, the “cytotoxicity (percentage inhibition of cells)” value in the data set with RAW 264.7 cells is on record as 24.68%.

On to `CO[C@H]1/C=C/O[C@@]2(C)Oc3c(C)c(O)c4c(O)c(c(/C=N/N5CCN(C)CC5)c(O)c4c3C2=O)NC(=O)/C(C)=C\C=C\[C@H](C)[C@H](O)[C@@H](C)[C@@H](O)[C@@H](C)[C@H](OC(C)=O)[C@@H]1C` [Rifampicin, rifampicin, reference compound], for which the MIC in data set [1] (setting [3]) was determined as 0.24 µg/mL; in data set [1] (setting [5]), 0.24 µM.

Turning to `CC[C@@H](CO)NCCN[C@@H](CC)CO` [ethambutol, reference compound], the MIC in data set [1] (setting [3]) turned out to be 7.64 µg/mL; in data set [1] (setting [5]) it was 7.64 µM.

The values above are taken from publication PMC5936909, “Identification of potent chromone embedded [1,2,3]-triazoles as novel anti-tubercular agents” (Royal Society Open Science, 2018).
